Drawing on PubChem BioAssay (NCI), this text covers TGI for six compounds.

Some test systems named below: DU-145 prostate; UACC-257 melanoma; NCI-H23 lung; NCI-H460 lung; SR leukemia; SNB-19 CNS; MCF7 breast; HT29 colon; OVCAR-8 ovarian; HS 578T breast; OVCAR-4 ovarian.
Experiment in all cases: NCI-60 cell line screen, 48 h

Structures are written as SMILES.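 The compound was tested at five concentrations on cells cultured in 96-well plates, with a 48-hour exposure period. TGI: concentration producing complete growth inhibition.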 Bounds are passed on as bounds.

Take `O=C1Sc2ccc(Br)cc2C(=O)Sc2ccccc21`: the TGI is 25.5 µM with DU-145 prostate; 28.4 µM in the experiment on UACC-257 melanoma; 36 µM in the experiment with NCI-H23 lung; 34 µM in the experiment with NCI-H460 lung; 4.13 µM in the experiment on SR leukemia; 29.5 µM in the experiment on SNB-19 CNS. For the same compound, the TGI in the experiment on MCF7 breast turned out to be 48.3 µM; in the experiment on HT29 colon it was 35.3 µM; with OVCAR-8 ovarian, 24 µM; in the experiment with HS 578T breast, 39.3 µM; with OVCAR-4 ovarian it was 29.8 µM.
As for `O=C1C(NCCc2ccc(O)c(O)c2)=CC(=O)c2ncccc21`, the TGI with DU-145 prostate was 24 µM; in the experiment with UACC-257 melanoma, 24.8 µM; in the experiment with NCI-H23 lung, > 78.3 µM; in the experiment with NCI-H460 lung, 29.4 µM; in the experiment with SR leukemia, > 100 µM; in the experiment on SNB-19 CNS, 45.8 µM. Moreover, the TGI in the experiment on MCF7 breast is 15.8 µM; in the experiment with HT29 colon, > 93.3 µM; in the experiment with OVCAR-8 ovarian, 57.3 µM; with HS 578T breast, 45.2 µM; in the experiment with OVCAR-4 ovarian, 50.9 µM.
As for `O=C(/C=C/c1ccsc1)c1ccco1`, the TGI with DU-145 prostate was determined as 26.4 µM; in the experiment with UACC-257 melanoma it was 38.6 µM; with NCI-H23 lung, 30.9 µM; in the experiment with NCI-H460 lung, 33.4 µM; in the experiment with SR leukemia, 9.14 µM; with SNB-19 CNS it was 28.8 µM. The TGI with MCF7 breast was 6.32 µM; in the experiment with HT29 colon, 22.8 µM; in the experiment on OVCAR-8 ovarian, 24 µM; in the experiment on HS 578T breast it was 29.6 µM; in the experiment with OVCAR-4 ovarian, > 37.2 µM.
For `COc1cccc(-c2ccc3c4c2O[C@H]2c5[nH]c6ccccc6c5C[C@@]5(O)[C@@H](C3)N(CC3CC3)CC[C@]425)c1`, the TGI in the experiment on DU-145 prostate worked out at 6.91 µM; in the experiment on UACC-257 melanoma it was 3.2 µM; with NCI-H23 lung it was 5.27 µM; with NCI-H460 lung it was 3.22 µM; with SR leukemia, 5.51 µM; in the experiment with SNB-19 CNS, 4.23 µM. The TGI with MCF7 breast came to 3.06 µM; in the experiment with HT29 colon, 3.19 µM; with OVCAR-8 ovarian, 3.11 µM; with HS 578T breast, 3.33 µM; with OVCAR-4 ovarian it was 3.27 µM.
As to `Clc1cc2c(c(CSC3=NCN(CC4CC4)CN3)c1)OCOC2`, the TGI in the experiment on DU-145 prostate was > 100 µM; with UACC-257 melanoma, 33.1 µM; with NCI-H23 lung it was 39.3 µM; in the experiment with NCI-H460 lung, 39.6 µM; in the experiment on SR leukemia, 42.2 µM; in the experiment on SNB-19 CNS it was > 100 µM. Also, the TGI in the experiment with MCF7 breast is 93.8 µM; in the experiment with HT29 colon it was 63.1 µM; with OVCAR-8 ovarian, > 100 µM; in the experiment with HS 578T breast, > 100 µM; with OVCAR-4 ovarian, > 100 µM.
Turning to `O=C(Nc1nc2c(=O)[nH]cnc2s1)c1ccccc1`, the TGI in the experiment on DU-145 prostate is > 100 µM; in the experiment on UACC-257 melanoma, > 100 µM; with NCI-H23 lung, > 100 µM; with NCI-H460 lung, > 100 µM; in the experiment on SR leukemia, 61.9 µM; with SNB-19 CNS, > 100 µM. The TGI in the experiment on MCF7 breast, in the experiment with HT29 colon, in the experiment on OVCAR-8 ovarian, with HS 578T breast and with OVCAR-4 ovarian was > 100 µM each time.
